Results as given in ChEMBL document CHEMBL1131363, “Isoindolinone enantiomers having affinity for the dopamine D4 receptor” (Bioorg Med Chem Lett, 1998).

Legend:
[1] = biological target: T1, D(4) dopamine receptor (Homo sapiens, UniProt P21917); test: In vitro binding affinity at human dopamine D4 receptor expressed in CHO cells by [3H]spiperone displacement.; assay type: cell-based
T1 sequence (P21917 whole entry): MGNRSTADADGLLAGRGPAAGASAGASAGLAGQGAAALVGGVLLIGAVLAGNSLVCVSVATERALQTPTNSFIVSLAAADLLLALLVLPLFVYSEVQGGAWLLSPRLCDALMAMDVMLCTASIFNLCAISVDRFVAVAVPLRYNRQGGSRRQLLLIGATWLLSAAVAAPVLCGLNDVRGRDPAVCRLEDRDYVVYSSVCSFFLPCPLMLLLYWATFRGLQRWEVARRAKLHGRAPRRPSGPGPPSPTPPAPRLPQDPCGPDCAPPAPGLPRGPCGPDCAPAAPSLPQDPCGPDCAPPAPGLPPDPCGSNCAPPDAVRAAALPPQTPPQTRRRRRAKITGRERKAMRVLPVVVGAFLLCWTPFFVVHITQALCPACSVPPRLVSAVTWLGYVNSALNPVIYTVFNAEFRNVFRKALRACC

[2] = biological target: D(2) dopamine receptor (Homo sapiens, UniProt P14416); test: Displacement of [3H]spiperone from human Dopamine receptor D2 expressed in CHO cells; assay type: cell-based
Sequence of D(2) dopamine receptor (P14416 whole entry): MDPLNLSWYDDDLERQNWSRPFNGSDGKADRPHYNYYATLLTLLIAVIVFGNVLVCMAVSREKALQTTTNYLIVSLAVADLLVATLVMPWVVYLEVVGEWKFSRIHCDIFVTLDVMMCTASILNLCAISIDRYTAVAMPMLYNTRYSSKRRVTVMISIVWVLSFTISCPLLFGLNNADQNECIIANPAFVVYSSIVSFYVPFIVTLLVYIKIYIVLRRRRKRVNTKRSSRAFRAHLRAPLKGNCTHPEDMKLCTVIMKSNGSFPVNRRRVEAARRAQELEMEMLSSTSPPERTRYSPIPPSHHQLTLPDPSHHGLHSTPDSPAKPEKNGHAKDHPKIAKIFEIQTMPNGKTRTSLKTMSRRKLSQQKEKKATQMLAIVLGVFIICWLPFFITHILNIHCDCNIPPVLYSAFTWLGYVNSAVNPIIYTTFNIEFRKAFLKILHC

[3] = biological target: D(3) dopamine receptor (Homo sapiens, UniProt P35462); test: Displacement of [3H]spiperone from human Dopamine receptor D3 expressed in CHO cells; assay type: cell-based
Sequence of D(3) dopamine receptor (P35462 whole entry): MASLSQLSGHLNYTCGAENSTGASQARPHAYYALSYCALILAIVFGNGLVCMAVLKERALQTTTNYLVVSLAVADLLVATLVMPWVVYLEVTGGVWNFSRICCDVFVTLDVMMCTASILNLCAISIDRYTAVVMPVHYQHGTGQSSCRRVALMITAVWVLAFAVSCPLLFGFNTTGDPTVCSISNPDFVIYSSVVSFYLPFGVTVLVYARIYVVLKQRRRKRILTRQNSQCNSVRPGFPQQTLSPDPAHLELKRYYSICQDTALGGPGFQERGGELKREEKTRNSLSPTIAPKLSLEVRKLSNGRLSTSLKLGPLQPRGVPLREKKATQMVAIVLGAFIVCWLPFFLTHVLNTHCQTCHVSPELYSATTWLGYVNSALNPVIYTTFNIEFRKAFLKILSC

[4] = biological target: T2, 5-hydroxytryptamine receptor 1A (Mus musculus, UniProt Q64264); test: In vivo binding affinity was evaluated against 5-hydroxytryptamine 1A receptor; assay type: organism-based
T2 sequence (Q64264 whole entry): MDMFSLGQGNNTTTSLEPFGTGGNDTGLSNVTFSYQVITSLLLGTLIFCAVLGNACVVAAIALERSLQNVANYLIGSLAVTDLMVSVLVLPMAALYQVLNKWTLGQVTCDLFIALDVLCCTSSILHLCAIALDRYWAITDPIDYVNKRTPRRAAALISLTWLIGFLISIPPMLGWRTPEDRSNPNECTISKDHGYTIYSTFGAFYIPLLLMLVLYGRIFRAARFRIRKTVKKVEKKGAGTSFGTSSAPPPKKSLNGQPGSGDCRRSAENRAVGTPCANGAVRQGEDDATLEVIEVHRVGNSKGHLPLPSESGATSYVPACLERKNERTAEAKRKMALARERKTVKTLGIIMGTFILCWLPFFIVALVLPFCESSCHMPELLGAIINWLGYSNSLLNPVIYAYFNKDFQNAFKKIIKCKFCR

[5] = biological target: 5-hydroxytryptamine receptor 2A (Bos taurus, UniProt Q75Z89); test: In vivo binding affinity was evaluated against 5-hydroxytryptamine 2 receptor; assay type: organism-based
Sequence of 5-hydroxytryptamine receptor 2A (Q75Z89 whole entry): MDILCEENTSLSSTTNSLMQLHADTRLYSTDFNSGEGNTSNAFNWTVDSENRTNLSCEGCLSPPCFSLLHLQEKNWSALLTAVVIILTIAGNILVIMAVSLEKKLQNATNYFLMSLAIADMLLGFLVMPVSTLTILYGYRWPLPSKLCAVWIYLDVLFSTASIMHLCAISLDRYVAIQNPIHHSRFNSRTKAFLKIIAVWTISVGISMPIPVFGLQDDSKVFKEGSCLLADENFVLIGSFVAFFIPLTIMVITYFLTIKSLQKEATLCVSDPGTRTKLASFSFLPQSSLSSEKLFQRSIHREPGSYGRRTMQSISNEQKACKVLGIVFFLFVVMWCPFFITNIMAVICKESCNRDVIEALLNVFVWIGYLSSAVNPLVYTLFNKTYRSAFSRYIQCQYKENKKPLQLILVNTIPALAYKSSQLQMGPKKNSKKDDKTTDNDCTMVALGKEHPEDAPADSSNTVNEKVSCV

[6] = system: Rattus norvegicus; test: Reversal of amphetamine (at 0.5 mg/kg given intra peritoneal) stimulated locomotor activity at 3 mg/kg in rat.; assay type: functional

Compound | Ki [1] [µM] | Ki [2] [µM] | Ki [3] [µM] | further results
O=C1NC(CCN2CCN(c3ccccc3)CC2)c2ccccc21 (configuration not stated) | – | – | 2.68 | –
Cc1ccc(N2CCN(CC[C@H]3NC(=O)c4ccccc43)CC2)cc1C | – | – | – | Ki [4]: 0.525 µM; Ki [5]: 0.0364 µM; Activity [6]: 8%
COc1ccc(N2CCN(CCC3c4ccccc4C(=O)N3C)CC2)cc1 (configuration not stated) | 0.333 | > 5 | > 3 | –
Cc1ccc(N2CCN(CCC3c4ccccc4C(=O)N3C)CC2)cc1C (configuration not stated) | 0.0351 | > 5 | > 3 | –
O=C1NC(CCN2CCN(c3ccc4ccccc4c3)CC2)c2ccccc21 (configuration not stated) | 0.01 | > 5 | > 3 | –
Cc1ccc(N2CCN(CC[C@@H]3NC(=O)c4ccccc43)CC2)cc1C | – | – | – | Ki [4]: 0.991 µM; Ki [5]: 0.0146 µM; Activity [6]: 70%
Cc1ccc(C2CCN(CCC3NC(=O)c4ccccc43)CC2)cc1C (configuration not stated) | – | – | > 3 | –
Cc1ccnc(N2CCN(CCC3NC(=O)c4ccccc43)CC2)c1 (configuration not stated) | 0.0226 | > 5 | > 3 | –
COc1ccc(N2CCN(CCC3NC(=O)c4ccccc43)CC2)cc1 (configuration not stated) | 0.0373 | > 5 | > 3 | –
Cc1nc(N2CCN(CCC3NC(=O)c4ccccc43)CC2)sc1C (configuration not stated) | – | > 5 | > 3 | –

Further lines, with some results ahead:

Ki [1] [µM] | Ki [2] [µM] | Ki [3] [µM] | Compound | further results
0.06 | – | – | O=C(CCN1CCN(c2ccc(CO)c(Cl)c2)CC1)c1ccc(Cl)cc1 | –
– | > 5 | > 3 | Cc1ccc(N2CCN(CCC3NC(=O)c4ccccc43)CC2)cc1 (configuration not stated) | –
– | > 5 | > 3 | O=C1NC(CCN2CCN(c3ccc(Cl)cc3)CC2)c2ccccc21 (configuration not stated) | –
0.011 | – | – | OCc1ccc(N2CCN(CCC(O)c3ccc(Cl)cc3)CC2)cc1Cl (configuration not stated) | –
0.0786 | > 5 | > 3 | CN1C(=O)c2ccccc2C1CCN1CCN(c2ccc(Cl)cc2)CC1 (configuration not stated) | –
0.0086 | – | – | OCc1ccc(N2CCN(CC[C@H](O)c3ccc(Cl)cc3)CC2)cc1Cl | –
0.0814 | – | – | OCc1ccc(N2CCN(CC[C@@H](O)c3ccc(Cl)cc3)CC2)cc1Cl | –
– | – | 2.68 | Cc1ccc(N2CCN(CCC3NC(=O)c4ccccc43)CC2)cc1C (configuration not stated) | –
